Test results published in ChEMBL document CHEMBL1127960, “Latent leishmanicidal activity of quinazolinones and 1,2,4-triazoloquinazolinones” (1994).

Tested on: Leishmania donovani
Assay: In vitro leishmanicidal activity against promastigotes of Leishmania donovani at 100 ug/ml concentration
Assay type: functional

Compound | Leishmanicidal activity (% promastigotes killed) [%]
CCn1c(=O)c2ccc(Cl)cc2n2cnnc12 | 19
CCn1c(=O)c2cc(OC)ccc2n2c(C)nnc12 | 42
Cn1c(=O)c2ccc(Cl)cc2n2cnnc12 | 81
CCn1c(=O)c2ccc(Cl)cc2n2c(CCl)nnc12 | 70
CCOC(=O)c1c(SC)nn(-c2nc3cc(Cl)ccc3c(=O)n2CC)c1N | 0
CCn1c(=O)c2ccc(Cl)cc2n2c(CSC3=NCCN3)nnc12 | 24
Cn1c(=O)c2ccc(Cl)cc2n2c(S)nnc12 | 55
CCn1c(NN)nc2ccc(OC)cc2c1=O | 0
CSc1nc2cc(Cl)ccc2c(=O)n1C | 0
CCn1c(=O)c2ccc(Cl)cc2n2c(S)nnc12 | 30
CCn1c(SCc2nnc3n(C)c(=O)c4ccc(Cl)cc4n23)nc2ccc(OC)cc2c1=O | 10
CCn1c(=O)c2cc(OC)ccc2n2c(CCl)nnc12 | 67
CCn1c(=O)c2cc(OC)ccc2n2cnnc12 | 39
Cn1c(=O)c2ccc(Cl)cc2n2c(CCl)nnc12 | 95
Cn1c(=O)c2ccc(Cl)cc2n2c(CSC3=NCCN3)nnc12 | 35
CCOC(=O)c1c(SC)nn(-c2nc3cc(Cl)ccc3c(=O)n2C)c1N | 0
CCn1c(=S)[nH]c2ccc(OC)cc2c1=O | 12
CCn1c(=O)c2ccc(Cl)cc2n2c(C)nnc12 | 49
CCn1c(=O)c2cc(OC)ccc2n2c(S)nnc12 | 80
CCn1c(SCc2nnc3n(CC)c(=O)c4ccc(Cl)cc4n23)nc2ccc(OC)cc2c1=O | 0
